# Experimental data from patent US20260250318A1, “COMPOSITIONS AND METHODS FOR CROSSING THE BLOOD BRAIN BARRIER” (VOYAGER THERAPEUTICS, INC., priority 2022, published 2026).
# Test system: brains, heart, liver, muscle, and DRG of the NHPs
# Experiment: Maturation of TTM-001 and TTM-002 capsids, NGS enrichment in NHP tissues
# Type: in vivo
# Conditions: NGS fold-enrichment; DRG; NHP; relative to AAV9
# Text: This Example describes maturation of the AAV9 capsid variants, TTM-001 (SEQ ID NO: 981 (amino acid) and 983 (DNA), comprising SEQ ID NO: 941 (encoded by SEQ ID NO: 942)) and TTM-002 (SEQ ID NO: 982 (amino acid) and 984 (DNA), comprising SEQ ID NO: […] (encoded by SEQ ID NO: 944)) in NHPs to further enhance their transduction and biodistribution in the central nervous system as well as other tissues, and evolve the AAV capsid variants to provide further cross-species compatibility. Two approaches were used to mature the TTM-001 and TTM-002 capsid sequences in order to randomize and mutate within and around the peptide insert comprised within loop IV of the capsid variant. […] In the first maturation approach, sets of three contiguous amino acids were randomized across the mutagenesis region in the TTM-001 and TTM-002 sequences, which spanned from position 450 to position 466, numbered according to SEQ ID NO: 981 and 982. In the second maturation approach, mutagenic primers were used to introduce point mutations at a low frequency, scattered across the mutagenesis region in the TTM-001 and TTM-002 sequences ranging from position 449 to position 466, numbered according to SEQ ID NO: 981 and 982. AAV capsid variants arising from each maturation approach for TTM-001 and TTM-002 were pooled together, for subsequent testing and characterization in NHPs.
# The library of pooled matured AAV capsid variants generated using the first maturation approach and the second maturation approach for the TTM-001 and TTM-002 AAV capsid variants were injected into two NHPs. […] Following RNA recovery and RT-PCR amplification, a systematic NGS enrichment analysis was performed to calculate the fold enrichment ratio relative to an AAV9 control, and the peptides comprised within the variants were identified.
# Following the RNA recovery and NGS analysis from the second maturation approach, approximately 680,000 capsid variants were identified. The 680,000 matured capsid variants were then filtered based on samples with a raw virus count greater than 10 and a coefficient of variance (CV) of less than 1, which was calculated for each peptide across the brain samples taken from the two NHPs. […] Using this filtering criteria, this led to approximately 64,000 matured capsid variants.
row,Sequence,"Fold Enrichment relative to AAV9, DRG (NHP)"
1,KPFLGSGSPHSKAQNQQT,0.000 fold
2,KTINGSGSPHSKALRHQT,0.000 fold
3,KTINGSGSPHSCQSNQQT,0.000 fold

# Same assay, conditions: NGS fold-enrichment; brain; NHP; relative to AAV9
row,Sequence,"Fold Enrichment relative to AAV9, Brain (NHP)"
1,KPFLGSGSPHSKAQNQQT,0.000 fold
2,KTINGSGSPHSKALRHQT,0.000 fold
3,KTINGSGSPHSCQSNQQT,0.000 fold

# Same assay, conditions: NGS fold-enrichment; heart; NHP; relative to AAV9
row,Sequence,"Fold Enrichment relative to AAV9, Heart (NHP)"
1,KPFLGSGSPHSKAQNQQT,0.000 fold
2,KTINGSGSPHSKALRHQT,0.000 fold
3,KTINGSGSPHSCQSNQQT,0.000 fold

# Same assay, conditions: NGS fold-enrichment; liver DNA; NHP; relative to AAV9
row,Sequence,"Fold Enrichment relative to AAV9, Liver DNA (NHP)"
1,KPFLGSGSPHSKAQNQQT,1.328 fold
2,KTINGSGSPHSKALRHQT,4.532 fold
3,KTINGSGSPHSCQSNQQT,1.468 fold

# Same assay, conditions: NGS fold-enrichment; liver RNA; NHP; relative to AAV9
row,Sequence,"Fold Enrichment relative to AAV9, Liver RNA (NHP)"
1,KPFLGSGSPHSKAQNQQT,10.318 fold
2,KTINGSGSPHSKALRHQT,10.774 fold
3,KTINGSGSPHSCQSNQQT,10.631 fold

# Same assay, conditions: NGS fold-enrichment; muscle; NHP; relative to AAV9
row,Sequence,"Fold Enrichment relative to AAV9, Muscle (NHP)"
1,KPFLGSGSPHSKAQNQQT,0.000 fold
2,KTINGSGSPHSKALRHQT,0.000 fold
3,KTINGSGSPHSCQSNQQT,0.000 fold

# Same assay, conditions: NHP DRG; NGS; relative to AAV9 control
row,Sequence,"Fold Enrichment relative to AAV9, DRG (NHP)"
1,KTINGSGSPHSKARQRQT,0.000 fold
2,KTINGSGSPHLVYQNQQT,0.000 fold
3,KTINGSGSPHSKRYTQQT,0.000 fold
4,KTINGSGSPHSKRRAQQT,0.000 fold
5,KTINGSGSPHWVPQNQQT,0.000 fold
6,KTINGSGSPHSKAQTCRT,0.000 fold
7,KTINGSGSPHSKRVVQQT,0.000 fold
8,KTINGSGSPHSKAQMQIT,0.000 fold
9,KTINGSGSPHSKARWQQT,0.000 fold
10,KTINGSGSPHRPWQNQQT,0.000 fold
11,KTINGSGSPHSFRYNQQT,0.000 fold
12,KTINGSGSPHSKQRPQQT,0.000 fold
13,KTTRCSGSPHSKAQNQQT,0.000 fold
14,KTINGSGSPHSKFRQQQT,0.000 fold
15,KTINGSGSPHYRYQNQQT,0.000 fold
16,KTRKRSGSPHSKAQNQQT,0.000 fold
17,KSRRGSGSPHSKAQNQQT,0.000 fold

# Same assay, conditions: NHP brain; NGS; relative to AAV9 control
row,Sequence,"Fold Enrichment relative to AAV9, Brain (NHP)"
1,KTINGSGSPHSKARQRQT,0.000 fold
2,KTINGSGSPHLVYQNQQT,0.000 fold
3,KTINGSGSPHSKRYTQQT,0.000 fold
4,KTINGSGSPHSKRRAQQT,0.000 fold
5,KTINGSGSPHWVPQNQQT,0.000 fold
6,KTINGSGSPHSKAQTCRT,0.000 fold
7,KTINGSGSPHSKRVVQQT,0.000 fold
8,KTINGSGSPHSKAQMQIT,0.000 fold
9,KTINGSGSPHSKARWQQT,0.000 fold
10,KTINGSGSPHRPWQNQQT,0.000 fold
11,KTINGSGSPHSFRYNQQT,0.000 fold
12,KTINGSGSPHSKQRPQQT,0.000 fold
13,KTTRCSGSPHSKAQNQQT,0.000 fold
14,KTINGSGSPHSKFRQQQT,0.000 fold
15,KTINGSGSPHYRYQNQQT,0.000 fold
16,KTRKRSGSPHSKAQNQQT,0.000 fold
17,KSRRGSGSPHSKAQNQQT,0.000 fold

# Same assay, conditions: NHP heart; NGS; relative to AAV9 control
row,Sequence,"Fold Enrichment relative to AAV9, Heart (NHP)"
1,KTINGSGSPHSKARQRQT,0.000 fold
2,KTINGSGSPHLVYQNQQT,0.000 fold
3,KTINGSGSPHSKRYTQQT,0.000 fold
4,KTINGSGSPHSKRRAQQT,0.000 fold
5,KTINGSGSPHWVPQNQQT,0.000 fold
6,KTINGSGSPHSKAQTCRT,0.000 fold
7,KTINGSGSPHSKRVVQQT,0.000 fold
8,KTINGSGSPHSKAQMQIT,0.000 fold
9,KTINGSGSPHSKARWQQT,0.000 fold
10,KTINGSGSPHRPWQNQQT,0.000 fold
11,KTINGSGSPHSFRYNQQT,0.000 fold
12,KTINGSGSPHSKQRPQQT,0.000 fold
13,KTTRCSGSPHSKAQNQQT,0.000 fold
14,KTINGSGSPHSKFRQQQT,0.000 fold
15,KTINGSGSPHYRYQNQQT,0.000 fold
16,KTRKRSGSPHSKAQNQQT,0.000 fold
17,KSRRGSGSPHSKAQNQQT,0.000 fold

# Same assay, conditions: NHP liver DNA; NGS; relative to AAV9 control
row,Sequence,"Fold Enrichment relative to AAV9, Liver DNA (NHP)"
1,KTINGSGSPHSKARQRQT,2.205 fold
2,KTINGSGSPHLVYQNQQT,1.045 fold
3,KTINGSGSPHSKRYTQQT,9.412 fold
4,KTINGSGSPHSKRRAQQT,5.906 fold
5,KTINGSGSPHWVPQNQQT,3.219 fold
6,KTINGSGSPHSKAQTCRT,6.369 fold
7,KTINGSGSPHSKRVVQQT,1.639 fold
8,KTINGSGSPHSKAQMQIT,0.371 fold
9,KTINGSGSPHSKARWQQT,2.377 fold
10,KTINGSGSPHRPWQNQQT,4.936 fold
11,KTINGSGSPHSFRYNQQT,4.148 fold
12,KTINGSGSPHSKQRPQQT,2.347 fold
13,KTTRCSGSPHSKAQNQQT,8.168 fold
14,KTINGSGSPHSKFRQQQT,3.260 fold
15,KTINGSGSPHYRYQNQQT,1.027 fold
16,KTRKRSGSPHSKAQNQQT,2.075 fold
17,KSRRGSGSPHSKAQNQQT,1.446 fold

# Same assay, conditions: NHP liver RNA; NGS; TTM-001 and TTM-002 matured AAV capsid variants; relative to AAV9 control
row,Sequence,"Fold Enrichment relative to AAV9, Liver RNA (NHP)"
1,KTINGSGSPHSKARQRQT,56.775 fold
2,KTINGSGSPHLVYQNQQT,14.196 fold
3,KTINGSGSPHSKRYTQQT,25.267 fold
4,KTINGSGSPHSKRRAQQT,26.523 fold
5,KTINGSGSPHWVPQNQQT,22.907 fold
6,KTINGSGSPHSKAQTCRT,26.472 fold
7,KTINGSGSPHSKRVVQQT,11.094 fold
8,KTINGSGSPHSKAQMQIT,13.990 fold
9,KTINGSGSPHSKARWQQT,45.017 fold
10,KTINGSGSPHRPWQNQQT,16.869 fold
11,KTINGSGSPHSFRYNQQT,21.097 fold
12,KTINGSGSPHSKQRPQQT,11.130 fold
13,KTTRCSGSPHSKAQNQQT,12.639 fold
14,KTINGSGSPHSKFRQQQT,38.665 fold
15,KTINGSGSPHYRYQNQQT,14.107 fold
16,KTRKRSGSPHSKAQNQQT,16.603 fold
17,KSRRGSGSPHSKAQNQQT,16.131 fold

# Same assay, conditions: NHP muscle; NGS; relative to AAV9 control
row,Sequence,"Fold Enrichment relative to AAV9, Muscle (NHP)"
1,KTINGSGSPHSKARQRQT,0.000 fold
2,KTINGSGSPHLVYQNQQT,0.000 fold
3,KTINGSGSPHSKRYTQQT,0.000 fold
4,KTINGSGSPHSKRRAQQT,0.000 fold
5,KTINGSGSPHWVPQNQQT,0.000 fold
6,KTINGSGSPHSKAQTCRT,0.000 fold
7,KTINGSGSPHSKRVVQQT,0.000 fold
8,KTINGSGSPHSKAQMQIT,0.000 fold
9,KTINGSGSPHSKARWQQT,0.000 fold
10,KTINGSGSPHRPWQNQQT,0.000 fold
11,KTINGSGSPHSFRYNQQT,0.000 fold
12,KTINGSGSPHSKQRPQQT,0.000 fold
13,KTTRCSGSPHSKAQNQQT,0.000 fold
14,KTINGSGSPHSKFRQQQT,0.000 fold
15,KTINGSGSPHYRYQNQQT,0.000 fold
16,KTRKRSGSPHSKAQNQQT,0.000 fold
17,KSRRGSGSPHSKAQNQQT,0.000 fold
